US11746374B2, “Methods and platform for screening and selecting metabolites and their receptors” (BOARD OF REGENTS, THE UNIVERSITY OF TEXAS SYSTEM, priority 2017, dated 2023)
Where “and” joins values, the source holds several entries; their conditions need not be identical. Equal entries are not always repeated. Entries after “also recorded” stand apart in the source; their conditions may differ.

Experiments:
[1] = biological target: T1, P2X2 (Homo sapiens, UniProt Q9UBL9); assay: Plate-based aequorin luminescence assay of P2X2 expressed in yeast; type: cell-based; design: expressed in transfected cells; host or cells: Saccharomyces cerevisiae BY4741 dCne1p, genome-integrated under the GAL1 promoter, aequorin on a high-copy plasmid; settings: for agonism / gating of P2X2: aequorin luminescence; for EC50: dose-response, area under luminescence curve
T1 sequence (Q9UBL9 1-471): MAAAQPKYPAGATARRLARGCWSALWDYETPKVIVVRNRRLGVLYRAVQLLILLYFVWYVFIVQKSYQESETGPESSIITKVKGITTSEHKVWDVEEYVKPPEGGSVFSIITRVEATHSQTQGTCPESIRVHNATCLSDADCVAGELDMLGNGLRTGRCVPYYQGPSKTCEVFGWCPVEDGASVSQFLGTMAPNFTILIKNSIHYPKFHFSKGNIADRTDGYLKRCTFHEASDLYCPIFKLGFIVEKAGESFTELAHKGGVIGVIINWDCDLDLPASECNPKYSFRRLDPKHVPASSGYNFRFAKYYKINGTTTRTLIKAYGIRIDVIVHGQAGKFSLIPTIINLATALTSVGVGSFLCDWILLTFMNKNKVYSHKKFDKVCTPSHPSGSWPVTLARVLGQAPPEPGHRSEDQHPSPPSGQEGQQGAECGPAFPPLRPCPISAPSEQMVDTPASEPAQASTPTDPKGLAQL
Protocol: Ion channel activity in yeast was tested with the purinergic P2X ion channel family. Channel gating was assessed by an aequorin assay in which aequorin is co-expressed with the receptor and, upon addition of the prosthetic group coelenterazine and addition of calcium, blue light is released. The aequorin-based functional assay was performed in all seven P2X receptors (FIG. 8). P2X1-7 were integrated into the chromosome to mitigate copy number variation between clones and were induced with galactose with the pGal1 promoter. […] Among those receptors that didn't work, it was suspected that improvements in expression and trafficking can improve functionality. For example, by modulating trafficking domains within the P2X4 receptor, aggregation was reduced in vesicles (FIG. 9), and it is believed that this tactic can be employed in other receptors. […] This can be because P2X2 has the slowest desensitization rates of the family (and is often considered “non-desensitizing”) and has the highest unitary conductance (30 pS).
To determine whether or not this truncated channel gated in yeast, an aequorin-based functional assay was used. Here aequorin, a bioluminescent protein, emits a photon upon binding calcium. This is done with the aid of coelenterazine, which must be added exogenously to yeast. The reaction is not catalytic, and the off-rate of calcium is too slow to observe on the timescales utilized in our assays. To optimize conditions for expression of both the receptor and reporter, a combination of integration, low-copy, and high-copy vectors was used. At this point, it was only possible to produce a signal upon addition of ATP, the native ligand, when both the receptor and reporter were expressed on high-copy plasmids (FIG. 56).
BY4741ΔCne1p cells were transformed with vectors containing P2X variants. Transformants were validated and made competent for a subsequent transformation with a vector containing aequorin under the expression of the constitutive PGK2 promoter. Overnight cells were induced with 2% […] for 20 hours. Following receptor expression, cells were collected by centrifugation and concentrated to 500 μL. The concentrated cells were then incubated with 5 μL of 1 mg/mL coelenterazine for 30 minutes at room temperature. Washed cells were then resuspended in softening buffer (1 M Sorbitol, 25 mM EDTA, 50 mM DTT), followed by washes in 1 M sorbitol and water. Cells were then resuspended in 50 mM MES/Tris pH 6.5 and aliquoted into a 96-well plate. Using an F500, 25 μL of cells were monitored for luminescence for 5 seconds. Upon addition of ligand or buffer (100 μL), cells were monitored for luminescence for varying times. Cell lysis was performed with the addition of 100 μL Tween20. For inhibition, varying concentrations of suramin were incubated with cells. Luminescence was monitored before and after the addition of 100 μL of 10 μM ATP. Areas under the curve were calculated and plotted against a negative control to determine the IC50.

[2] = biological target: T2, 3,5,7-trioxododecanoyl-CoA synthase (OLS) (Cannabis sativa, UniProt B1Q2B6); settings: cited from earlier work
T2 sequence (B1Q2B6 1-385): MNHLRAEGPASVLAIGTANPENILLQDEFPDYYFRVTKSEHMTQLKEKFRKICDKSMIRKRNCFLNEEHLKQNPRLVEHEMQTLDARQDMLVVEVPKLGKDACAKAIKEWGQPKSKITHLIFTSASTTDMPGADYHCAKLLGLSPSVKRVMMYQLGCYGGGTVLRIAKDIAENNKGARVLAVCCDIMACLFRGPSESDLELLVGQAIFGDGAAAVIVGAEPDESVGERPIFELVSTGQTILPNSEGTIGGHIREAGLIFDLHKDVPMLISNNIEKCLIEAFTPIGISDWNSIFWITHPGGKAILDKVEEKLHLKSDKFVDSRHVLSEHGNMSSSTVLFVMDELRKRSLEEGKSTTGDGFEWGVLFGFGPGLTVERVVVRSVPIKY

[3] = tested on: BY4741; assay: Metabolite toxicity determined by growth assays; type: cell-based, Saccharomyces cerevisiae; settings: 4 mM of each metabolite, compared to synthetic media only
Protocol: Measurements of cell density (OD600) were taken in 10 min intervals. Each condition was tested in triplicate. For hexanoate growth conditions of aromatic prenyltransferase variants, transformed cells were seeded for 48 hrs and diluted 1:25 in 96-well grow-blocks in media containing 1-5 mM hexanoate. Measurements of cell density were taken in 24 hr intervals using an F500 plate reader. Final screening was performed with 10 mM hexanoate, 1% acetate supplemented synthetic complete media in 50 mL culture volumes.

[4] = biological target: T3, Tetrahydrocannabinolic acid synthase (THCA synthase) WT (Cannabis sativa, UniProt Q8GTB6); settings: cited from earlier work
T3 sequence (Q8GTB6 29-545): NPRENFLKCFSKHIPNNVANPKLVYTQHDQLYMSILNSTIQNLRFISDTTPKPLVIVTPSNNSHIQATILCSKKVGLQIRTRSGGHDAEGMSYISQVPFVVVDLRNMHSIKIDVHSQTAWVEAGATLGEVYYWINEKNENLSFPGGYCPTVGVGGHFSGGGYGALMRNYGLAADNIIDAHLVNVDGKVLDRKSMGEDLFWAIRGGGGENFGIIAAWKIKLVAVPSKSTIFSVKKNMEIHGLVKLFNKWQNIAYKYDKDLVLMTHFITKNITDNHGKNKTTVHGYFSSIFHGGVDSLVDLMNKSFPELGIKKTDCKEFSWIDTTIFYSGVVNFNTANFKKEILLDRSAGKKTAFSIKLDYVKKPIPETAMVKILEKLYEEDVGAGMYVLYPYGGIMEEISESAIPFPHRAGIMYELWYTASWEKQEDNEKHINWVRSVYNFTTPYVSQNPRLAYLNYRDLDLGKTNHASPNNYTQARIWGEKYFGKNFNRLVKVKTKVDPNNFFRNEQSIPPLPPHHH

[5] = biological target: T4, cannabidiolic acid synthase (CBDA synthase) (Cannabis sativa, UniProt A6P6V9); settings: cited from earlier work
T4 sequence (A6P6V9 29-544): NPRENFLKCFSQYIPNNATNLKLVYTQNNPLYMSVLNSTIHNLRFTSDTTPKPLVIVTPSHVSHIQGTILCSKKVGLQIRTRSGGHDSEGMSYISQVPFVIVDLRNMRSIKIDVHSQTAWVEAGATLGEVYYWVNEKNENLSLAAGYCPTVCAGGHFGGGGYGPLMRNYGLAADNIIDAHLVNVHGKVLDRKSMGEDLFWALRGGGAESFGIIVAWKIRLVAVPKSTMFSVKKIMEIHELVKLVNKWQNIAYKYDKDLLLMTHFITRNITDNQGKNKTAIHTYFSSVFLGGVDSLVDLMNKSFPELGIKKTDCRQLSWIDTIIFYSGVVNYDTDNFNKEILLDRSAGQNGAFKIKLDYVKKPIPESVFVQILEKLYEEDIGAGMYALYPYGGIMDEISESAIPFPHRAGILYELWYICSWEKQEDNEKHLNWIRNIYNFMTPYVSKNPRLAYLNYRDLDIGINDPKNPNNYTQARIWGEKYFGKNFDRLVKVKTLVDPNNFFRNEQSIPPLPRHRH

[6] = biological target: T5, CsAAE1 Hexanoyl CoA Synthase (Cannabis sativa, UniProt H9A1V3); settings: cited from earlier work
T5 sequence (H9A1V3 1-720): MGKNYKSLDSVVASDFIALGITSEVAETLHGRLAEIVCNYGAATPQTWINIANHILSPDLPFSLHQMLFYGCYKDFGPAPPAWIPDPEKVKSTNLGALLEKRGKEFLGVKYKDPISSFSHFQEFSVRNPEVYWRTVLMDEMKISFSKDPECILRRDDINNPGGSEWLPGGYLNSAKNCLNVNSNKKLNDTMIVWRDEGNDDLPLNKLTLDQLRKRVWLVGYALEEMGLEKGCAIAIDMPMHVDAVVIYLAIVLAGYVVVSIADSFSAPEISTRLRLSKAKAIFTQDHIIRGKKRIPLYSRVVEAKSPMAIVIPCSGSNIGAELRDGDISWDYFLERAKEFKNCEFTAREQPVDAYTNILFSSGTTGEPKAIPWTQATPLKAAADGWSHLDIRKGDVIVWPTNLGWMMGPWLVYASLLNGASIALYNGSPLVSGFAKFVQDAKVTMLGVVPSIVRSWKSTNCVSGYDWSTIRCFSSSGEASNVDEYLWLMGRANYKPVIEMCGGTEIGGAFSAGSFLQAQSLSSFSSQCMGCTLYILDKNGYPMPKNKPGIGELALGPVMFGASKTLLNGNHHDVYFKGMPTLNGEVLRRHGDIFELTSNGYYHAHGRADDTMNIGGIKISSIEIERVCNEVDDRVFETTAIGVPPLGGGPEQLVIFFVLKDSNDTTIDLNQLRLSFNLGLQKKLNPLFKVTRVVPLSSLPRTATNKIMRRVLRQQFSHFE

[7] = biological target: T6, human CB2 receptor (Homo sapiens, UniProt P34972); type: cell-based; settings: exogenously added ligand; GFP or zsGreen1 reporter
T6 construct: expressed in transfected cells; host or cells: Saccharomyces cerevisiae strains JG03-, JG04-, JG05-2.0 (zsGreen1 reporter), high-copy plasmid
Protocol: The ability of three of strains to couple to the human CB2 receptor expressed on a high-copy number plasmid was tested. Ga subunits that were predicted to couple to the receptor (Shim et al., 2013) were used. The dose-response of 2-arachidonyl glycerol, the native endocannabinoid, in strains differing only in the terminal 5 amino acids of the Gα protein. Control receptors were built that contained stop codons in the middle of the gene. These are referred to as ‘broken’ receptors.
Cells were washed 3 times and resuspended in PBS. Fluorescent (485 nm/515 nm) and cell density (600 nm) measurements were taken on a Cytation 5. Data were plotted and analyzed using SigmaPlot10. For CB2, strains JG03-, JG04-, and JG05-2.0 were transformed and treated the same. Broken receptor (stop codons) were also included in these assays.

[8] = biological target: wild-type CB2 receptor (Homo sapiens, UniProt P34972); settings: Gertsch 2008; cited from earlier work
wild-type CB2 receptor, sequence (P34972 whole entry): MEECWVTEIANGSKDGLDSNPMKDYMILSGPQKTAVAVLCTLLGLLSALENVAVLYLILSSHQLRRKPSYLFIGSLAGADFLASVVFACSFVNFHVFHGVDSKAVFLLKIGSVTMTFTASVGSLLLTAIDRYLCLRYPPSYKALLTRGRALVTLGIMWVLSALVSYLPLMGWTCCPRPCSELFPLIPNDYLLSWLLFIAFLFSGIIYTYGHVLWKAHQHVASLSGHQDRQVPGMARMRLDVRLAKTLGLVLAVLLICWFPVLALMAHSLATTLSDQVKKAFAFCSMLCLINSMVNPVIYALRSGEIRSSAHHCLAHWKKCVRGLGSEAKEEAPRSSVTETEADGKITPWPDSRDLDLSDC

T6 sequence (P34972 whole entry): as above

2′(3′)-O-(4-Benzoylbenzoyl)adenosine-5′-triphosphate [BzATP]
amplitude of generated signal lower than either ATP or 2-Cl-ATP [1]: 3 orders of magnitude | duration that the channel remains open, longer [1]: ~10 fold | peak amplitude relative to that achieved with ATP [1]: approximately 20% | agonism / gating of P2X2 [1]: partial agonism | EC50 [1]: 29.1 ± 6 µM

Nc1nc(Cl)nc2c1ncn2[C@@H]1O[C@H](COP(=O)(O)OP(=O)(O)OP(=O)(O)O)[C@@H](O)[C@H]1O [2-Chloro ATP, 2-Chloro-Adenosinetriphosphate]
agonism / gating of P2X2 [1]: full agonist behavior | EC50 [1]: 26.7 ± 1.5 µM

CCCCCC(=O)CC(=O)CC(=O)CC(=O)SCCNC(=O)CCNC(=O)[C@H](O)C(C)(C)COP(=O)(O)OP(=O)(O)OC[C@H]1O[C@@H](n2cnc3c(N)ncnc32)[C@H](O)[C@@H]1OP(=O)(O)O [3,5,7-trioxododecanoyl-CoA]
Km [2]: 56.9 µM | kcat [2]: 0.0577 s⁻¹

Nc1ncnc2c1ncn2[C@@H]1O[C@H](COP(=O)(O)OP(=O)(O)NP(=O)(O)O)[C@@H](O)[C@H]1O [AMP-PNP, adenylyl-imidodiphosphate]
agonism / gating of P2X2 [1]: did not gate P2X2

C=C(C)[C@@H]1CCC(C)=C[C@H]1c1c(O)cc(CCCCC)cc1O [CBD, cannabidiol]
effect on yeast growth [3]: modest growth defect; also recorded: far less inhibitory

CCCCCc1cc(O)c(C/C=C(\C)CCC=C(C)C)c(O)c1C(=O)O [CBGA, Cannabigerolic acid]
Km [4]: 134 µM | kcat [4]: .201 s⁻¹ | Km [5]: 137 µM | kcat [5]: 0.19 s⁻¹ | effect on yeast growth [3]: modest growth defect; also recorded: far less inhibitory

CCCCCC(=O)O [Hexanoate, Hexanoic acid]
Km [6]: 3700 µM | kcat [6]: 2.0 s⁻¹ | effect on yeast growth [3]: severely inhibit growth | effect on yeast growth ([3]; listed as Hexanoic acid): strongly inhibit growth

CCCCCC(=O)SCCNC(=O)CCNC(=O)[C@H](O)C(C)(C)COP(=O)(O)OP(=O)(O)OC[C@H]1O[C@@H](n2cnc3c(N)ncnc32)[C@H](O)[C@@H]1OP(=O)(O)O [Hexanoyl-CoA]
Km [2]: 63.1 µM and 60.8 µM

CCCCCc1cc(O)cc(O)c1 [olivetol]
effect on yeast growth [3]: severely inhibit growth

CCCCCc1cc(O)cc(O)c1C(=O)O [olivetolic acid]
effect on yeast growth [3]: strongly inhibit growth

C=C1CC/C=C(\C)CC[C@@H]2[C@@H]1CC2(C)C [β-caryophyllene]
reporter response of CB2-expressing yeast to ligand [7]: dose-dependent up-regulation of GFP expression; also recorded: responded to high concentration | detectable level of activation with the wild-type CB2 receptor [8]: 1.9 µM
